Experimental data reported in patent US20250288570A1, “TREATMENT OF NEUROLOGICAL DISORDERS” (Praxis Precision Medicines, Inc., priority 2022, published 2025).
Entries after “also recorded” stand apart in the source; their conditions may differ.

What was measured:
human Nav1.6 [1] = biological target: T1, human Nav1.6 (Homo sapiens, UniProt Q9UQD0); experiment: ATX-II activated late (persistent) INa block, automated patch clamp in HEK cells; assay type: cell-based; settings: for Persistent INa Hill slope: hNav1.6 in HEK cells; for inhibition of and preference for persistent INa (in words): hNav1.6
T1 construct: HEK-293 cell lines stably expressing human Nav1.6 (NP_055006) were used; expressed in transfected cells

human Nav1.6 [2] = biological target: T1, human Nav1.6; experiment: Peak INa tonic block (TB), automated patch clamp in HEK cells; assay type: cell-based; settings: ratio of peak INa (TB) to persistent INa IC50
hNav1.6 = biological target: T2, hNav1.6 (Homo sapiens, UniProt Q9UQD0); experiment: Peak INa voltage-dependent block (VDB), automated patch clamp in HEK cells; assay type: cell-based
T2 construct: expressed in transfected cells; host or cells: HEK cells

[3] = test system: MES-induced tonic hindlimb extension in male CD-1 mice; experiment: MES acute seizure model, tonic hindlimb extension, Example 9; assay type: in vivo, mouse; settings: for ED50: Mus musculus, read-out: ED50 value, protection from MES-induced tonic hindlimb extension
Method: The maximal electroshock (MES) acute seizure model of generalized seizures is validated for evaluating the anticonvulsant potential of compounds. […] The objective of this study was to evaluate the effect of Compound 1 on maximal electroshock induced seizure in male CD-1 mice.
Male CD-1 mice (Vital River, Beijing, China) approximately 6 weeks old were obtained for the study. Body weights were between 20.5 grams and 38.5 grams at the time the experiments were carried out. […] Food and water were available ad libitum.
Treatment was conducted using Compound 1 and 35% 2-hydroxypropyl-β-cyclodextrin (35% HPBCD, used as a negative control). Compound 1 stock solution was prepared fresh each experiment day in 35% HPBCD and protected from light. The stock solution was diluted with vehicle for lower doses.
Mice were brought to the test room at least one hour before the start of the experiment. Mice were administered valproate (VPA; 400 mg/kg, intraperitoneally); or vehicle (35% HPBCD, 10 mL/kg, intraperitoneally); or Compound 1 (0.3 mg/kg, 1 mg/kg, 3 mg/kg or 10 mg/kg, orally) 30 minutes prior to the MES test.
The electroshock apparatus was set to deliver a 50 mA square-wave stimulus, with a 0.8 second duration, a pulse width of 10 milliseconds, and a frequency of 50 Hz. A pair of custom stainless-steel electrodes were soaked in 0.2% agar, and then the subject received bilateral transauricular stimulation through ear-clip electrodes. During the stimulation, mice were manually restrained then released immediately into an observation cage where they were monitored continuously for 60 seconds by an observer blinded to treatment group.
Mice were anesthetized with CO2 and terminal plasma and brain tissue samples were collected. […] The supernatant plasma was pipetted into Eppendorf tubes.
All statistical analyses were conducted using GraphPad Prism 9.3. Means were combined and standard error was calculated using the Satterthwaite Approximation to combine standard deviations. […] ED50 and EC50 values were calculated from these fit curves.

[4] = test system: psychomotor seizures induced by 6-Hz electrical stimulation in CD-1 mice; experiment: 6-Hz psychomotor seizure model (32 and 44 mA); assay type: in vivo, mouse; settings: 600 mg/kg intraperitoneally
Description: The 6-Hz test is a validated model of focal seizures for evaluating the anti-seizure potential of compounds. The 6-Hz seizure model can be performed at different stimulation intensities (32 or 44 mA), with the higher intensity (44 mA) used as a model of pharmacoresistant seizures. The positive control valproate is an approved anti-seizure medicine (ASM).
This study evaluated the efficacy of Compound 1 in attenuating psychomotor seizures induced by 6-Hz electrical stimulation at two different stimulation intensities (32 and 44 mA) in wild-type CD-1 mice. Psychomotor seizures are defined as the expression of at least one of the following behaviors: stun/immobility, forelimb clonus, straub tail or lateral head movement within 30 seconds of the stimulus. Protection is defined as a complete absence of the above behaviors within 30 seconds of the stimulus. Doses of Compound 1 used were 1 mg/kg, 3 mg/kg and 6 mg/kg administered orally. Valproate (600 mg/kg, administered intraperitoneally) was used as a positive control.
Male CD-1 mice (Charles River Laboratories; St. Constant, Quebec, CAN) were used for the study. Body weights at the time the experiment was carried out were 30-40 grams. The mice were group-housed in polycarbonate cages according to standard operating procedures. Animals were maintained on a 12-hour light/12 hour dark cycle, with all experimental activities occurring during the light phase. Food and water were available ad libitum. Mice acclimated to the test facility for at least 72 hours prior to testing.
Treatment was conducted using Compound 1 and 35% 2-hydroxypropyl-β-cyclodextrin (35% HPBCD, used as a negative control). Compound 1 stock solution was prepared fresh each experiment day in 35% HPBCD. […] Valproate was prepared fresh each experiment day in a vehicle of saline and dosed at 10 mL/kg.
Mice were administered vehicle (35% HPBCD), a single dose of Compound 1 (1 mg/kg, 3 mg/kg or 6 mg/kg) or valproate (600 mg/kg). Vehicle and Compound 1 were administered via oral gavage 30 minutes prior to […]. Valproate was administered as an intraperitoneal injection 60 minutes prior to the electrical stimulus.
Immediately prior to conducting the 6-Hz seizure test, a brief neurological assessment was performed. Each animal was visually assessed and received a score from 0 to 3 according to the following scoring system: neurological score of 0 corresponds to a normal status; neurological score of 1 corresponds to a modest decrease in spontaneous activity; neurological score of 2 corresponds to a marked decrease in spontaneous activity; and neurological score of 3 corresponds to loss of righting reflex.
Corneal electrodes moistened with saline (ECT unit 57800; Ugo Basile) were used to deliver the electrical stimulus (6-Hz, 0.2 millisecond pulse width, 3 seconds duration). The current delivered was either 32 mA or 44 mA. Immediately after the electrical stimulus, each mouse was monitored continuously for 30 seconds by an observer blinded to the treatment group. […] Mice were scored for the presence or absence of each seizure behavior, with a maximum total score of 4. […] At the end of the 6-Hz seizure test, plasma and brain samples were collected.
Mice were anesthetized with isoflurane, whole blood was collected via cardiac puncture and brains were harvested. […] Plasma and brain samples were stored at −80° C. and analyzed to determine levels of Compound 1. […]

human Nav1.6 [5] = biological target: T1, human Nav1.6; experiment: Peak INa use-dependent block (UDB-10 Hz), automated patch clamp in HEK cells; assay type: cell-based; settings: for Peak INa UDB-10 Hz Hill slope: use-dependent block; for activity dependent block of peak INa (in words): hNav1.6
[6] = test system: spontaneous locomotor activity in male CD-1 mice; experiment: Spontaneous locomotor activity (sLMA) test, Example 4; settings: mouse, in vivo
Method: The Spontaneous Locomotor Activity (sLMA) test is a validated model for evaluating the potential motor side effects of compounds. The objective of this study was to evaluate the effect of Compound 1 (3, 5.6, 10 and 20 […], p.o.) on spontaneous locomotor activity (sLMA) in male CD-1 mice at 30 minutes post-dose.
(§1) Food and water were available ad libitum.
Dosing solutions were prepared on each experiment day. […] All solutions were protected from light. Samples from dosing solutions were stored at 4° C.
The sLMA test was carried out over two days. Half of the mice from each treatment group was tested on each day.
Animals were p.o. administered Compound 1 or 35% HPBCD (vehicle) 30 minutes prior to the sLMA test.
All mice were anesthetized with CO2. […] The supernatant plasma was pipetted into Eppendorf tubes.

[7] = test system: MES-induced seizures in male CD-1 mice; experiment: Maximal electroshock (MES) induced seizure test, Example 3; assay type: in vivo, mouse; settings: dose response
Method: The maximal electroshock (MES) test is a validated model for evaluating anti-seizure potential of compounds. […] The object of these studies was to evaluate the effect of Compound 1 (0.3, 1, 3 and 10 mg/kg p.o. (oral)) to attenuate MES-induced seizures in male CD-1 mice.
as §1
Dosing solutions were prepared on each experiment day. […] VPA was prepared in saline (Vehicle 1). All solutions were protected from light. All compounds and vehicles were dosed at 10 ml/kg.
The MES test was carried out over two days with half of the mice from each treatment group being tested on each day. Mice were brought to the test room at least one hour before the start of the experiment. […] Mice were randomly assigned into one of the six treatment groups.
Animals were p.o. (oral) administered Compound 1 or 35% HPBCD (Vehicle 2) 30 minutes prior to the MES test or i.p. administered VPA or saline (Vehicle 1) 30 minutes prior to the MES test.
A Grass S88× (Grass Technologies of Astro-Med, Inc., West Warwick, RI) Stimulus Isolation Unit (A385, WPI Inc., USA) was set to deliver a 50 mA square-wave stimulus, with a 0.8 second duration, a pulse width of 10 msec, and a frequency of 50 Hz. […] Each mouse was observed continuously by individuals blinded to treatment conditions and results were recorded. […]
From these fitted curves, ED50 and EC50 values were calculated.

[8] = 400 mg/kg intraperitoneally, listed as valproate

T2 sequence (Q9UQD0 whole entry): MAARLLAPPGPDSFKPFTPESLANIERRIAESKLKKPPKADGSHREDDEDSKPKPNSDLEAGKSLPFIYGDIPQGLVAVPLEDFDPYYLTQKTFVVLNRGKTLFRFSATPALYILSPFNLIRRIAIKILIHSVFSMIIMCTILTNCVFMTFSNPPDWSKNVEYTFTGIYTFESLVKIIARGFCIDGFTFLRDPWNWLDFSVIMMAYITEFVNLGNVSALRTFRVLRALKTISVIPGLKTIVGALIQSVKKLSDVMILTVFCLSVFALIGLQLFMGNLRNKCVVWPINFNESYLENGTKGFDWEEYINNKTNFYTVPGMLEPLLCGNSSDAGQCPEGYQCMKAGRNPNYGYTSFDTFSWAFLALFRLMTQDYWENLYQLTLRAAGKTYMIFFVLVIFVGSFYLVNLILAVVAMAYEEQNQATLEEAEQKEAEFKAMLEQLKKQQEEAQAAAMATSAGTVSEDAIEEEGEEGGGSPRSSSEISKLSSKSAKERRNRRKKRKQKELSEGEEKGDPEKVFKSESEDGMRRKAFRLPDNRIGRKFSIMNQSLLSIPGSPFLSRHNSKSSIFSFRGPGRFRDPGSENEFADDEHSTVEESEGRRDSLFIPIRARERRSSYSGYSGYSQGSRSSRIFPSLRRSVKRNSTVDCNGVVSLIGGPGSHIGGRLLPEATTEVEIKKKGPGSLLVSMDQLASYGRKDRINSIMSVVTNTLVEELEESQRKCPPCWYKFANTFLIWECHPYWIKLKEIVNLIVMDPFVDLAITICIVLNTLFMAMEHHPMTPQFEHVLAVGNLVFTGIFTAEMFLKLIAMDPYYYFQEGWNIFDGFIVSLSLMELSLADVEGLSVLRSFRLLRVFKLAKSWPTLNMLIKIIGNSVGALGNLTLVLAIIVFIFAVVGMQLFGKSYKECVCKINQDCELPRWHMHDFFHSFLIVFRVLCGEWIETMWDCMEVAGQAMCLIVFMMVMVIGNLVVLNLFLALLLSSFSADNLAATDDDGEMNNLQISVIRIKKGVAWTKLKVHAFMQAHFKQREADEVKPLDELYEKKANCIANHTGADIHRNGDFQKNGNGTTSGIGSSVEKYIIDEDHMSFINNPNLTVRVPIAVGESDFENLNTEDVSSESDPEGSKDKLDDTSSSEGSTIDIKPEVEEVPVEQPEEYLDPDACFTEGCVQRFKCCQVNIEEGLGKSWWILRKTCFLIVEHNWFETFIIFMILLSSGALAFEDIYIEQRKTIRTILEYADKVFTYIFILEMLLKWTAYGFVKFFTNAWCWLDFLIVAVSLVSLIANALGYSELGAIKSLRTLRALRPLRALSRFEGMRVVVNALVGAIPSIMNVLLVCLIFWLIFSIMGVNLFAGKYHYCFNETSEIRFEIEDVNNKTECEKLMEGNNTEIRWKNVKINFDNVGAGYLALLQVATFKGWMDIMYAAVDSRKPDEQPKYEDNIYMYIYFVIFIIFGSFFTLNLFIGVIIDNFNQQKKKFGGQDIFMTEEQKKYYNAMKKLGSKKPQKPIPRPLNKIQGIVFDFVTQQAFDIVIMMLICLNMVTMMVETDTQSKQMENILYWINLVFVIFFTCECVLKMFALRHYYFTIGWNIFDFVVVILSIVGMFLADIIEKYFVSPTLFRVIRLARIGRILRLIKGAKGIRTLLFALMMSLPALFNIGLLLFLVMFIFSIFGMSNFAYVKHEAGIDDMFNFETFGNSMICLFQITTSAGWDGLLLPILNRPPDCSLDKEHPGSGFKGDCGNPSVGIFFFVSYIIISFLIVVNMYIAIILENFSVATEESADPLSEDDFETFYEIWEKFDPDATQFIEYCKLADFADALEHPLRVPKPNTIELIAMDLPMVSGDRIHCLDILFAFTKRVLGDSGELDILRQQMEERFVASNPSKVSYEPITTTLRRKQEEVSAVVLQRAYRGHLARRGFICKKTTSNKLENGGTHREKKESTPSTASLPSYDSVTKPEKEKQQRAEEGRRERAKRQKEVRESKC
T1 sequence (Q9UQD0 whole entry): as above

Compound: NC(=O)N1c2ccccc2CC(=O)c2ccccc21 [Oxcarbazepine, oxcarbazepine]
- Persistent INa Hill slope (human Nav1.6 [1]): (1.0)
- Peak INa TB Ratio to Pers. INa (human Nav1.6 [2]): 8
- Peak INa VDB Hill slope (hNav1.6): (1.1)
- Peak INa VDB Ratio to Pers. INa (hNav1.6): 0.3

Compound: Cc1cc(N2CCc3cc(F)ccc3C2)cc(C)c1NC(=O)CC(C)(C)C [XEN1101]
- ED50 ([3]; male CD-1 mice): 3.8 to 5.4 mg/kg

Compound: CCCC(CCC)C(=O)O [Valproic acid]
- sedation before MES test (in words) ([3]; 400 mg/kg intraperitoneally, listed as Valproate): mild to moderate sedation
- protection against MES-induced hindlimb extension (in words) [3, 8]: all mice n=24 were seizure-free; also recorded: protected mice from MES-induced tonic hindlimb extension
- sedation before MES test (in words) [3, 8]: nearly all valproate-treated mice showed mild to moderate sedation
- average neurological score [4]: 1.2
- neurological scores / spontaneous activity ([4]; listed as valproate): modest to marked decrease in spontaneous activity

Compound: O=C1NC(=O)C(c2ccccc2)(c2ccccc2)N1 [Phenytoin, phenytoin]
- Persistent INa Hill slope (human Nav1.6 [1]): (0.8)
- Peak INa UDB-10 Hz Ratio to Pers. INa (human Nav1.6 [5]): 15
- Peak INa UDB-10 Hz Hill slope (human Nav1.6 [5]): (0.6)
- Peak INa VDB Hill slope (hNav1.6): (1.0)
- Peak INa VDB Ratio to Pers. INa (hNav1.6): 0.8

Compound: Nc1nnc(-c2cccc(Cl)c2Cl)c(N)n1 [Lamotrigine, lamotrigine]
- inhibition of and preference for persistent INa (in words) (human Nav1.6 [1]): lower potency and preference for persistent INa
- Persistent INa Hill slope (human Nav1.6 [1]): (1.0)
- sLMA dose response (in words) [6]: dose-dependent reductions in sLMA
- activity dependent block of peak INa (in words) (human Nav1.6 [5]): minimal activity dependent block of peak INa
- Peak INa UDB-10 Hz Hill slope (human Nav1.6 [5]): (1.0)
- ED50 ([3]; male CD-1 mice): 3.8 to 5.4 mg/kg
- protection against MES-induced seizures (in words) [7]: dose-dependent protection from MES-induced seizures
- Peak INa VDB Hill slope (hNav1.6): (0.9)

Compound: NC(=O)N1c2ccccc2C=Cc2ccccc21 [Carbamazepine, carbamazepine]
- persistent INa preference to TB (human Nav1.6 [1]): 30 ×
- inhibition of and preference for persistent INa (in words) (human Nav1.6 [1]): lower potency and preference for persistent INa
- Persistent INa Hill slope (human Nav1.6 [1]): (1.1)
- sLMA dose response (in words) [6]: dose-dependent reductions in sLMA
- Peak INa UDB-10 Hz Ratio to Pers. INa (human Nav1.6 [5]): 18
- UDB preference to TB (human Nav1.6 [5]): no UDB observed
- activity dependent block of peak INa (in words) (human Nav1.6 [5]): minimal activity dependent block of peak INa
- Peak INa UDB-10 Hz Hill slope (human Nav1.6 [5]): (0.9)
- ED50 ([3]; male CD-1 mice): 3.8 to 5.4 mg/kg
- Peak INa TB Ratio to Pers. INa (human Nav1.6 [2]): 30
- protection against MES-induced seizures (in words) [7]: dose-dependent protection from MES-induced seizures
- Peak INa VDB Hill slope (hNav1.6): (0.9)
- Peak INa VDB Ratio to Pers. INa (hNav1.6): 0.6

Compound: COC[C@@H](NC(C)=O)C(=O)NCc1ccccc1 [Lacosamide, lacosamide]
- Persistent INa Hill slope (human Nav1.6 [1]): (0.9)
- Peak INa UDB-10 Hz Ratio to Pers. INa (human Nav1.6 [5]): 0.8
- Peak INa UDB-10 Hz Hill slope (human Nav1.6 [5]): (1.3)
- Peak INa VDB Hill slope (hNav1.6): (1.2)
- Peak INa VDB Ratio to Pers. INa (hNav1.6): 0.3

Compound: NC(=O)O[C@@H](Cn1ncnn1)c1ccccc1Cl [Cenobamate, cenobamate]
- persistent INa preference to TB (human Nav1.6 [1]): 24 ×
- Persistent INa Hill slope (human Nav1.6 [1]): (1.1)
- Peak INa UDB-10 Hz Ratio to Pers. INa (human Nav1.6 [5]): 11
- UDB preference to TB (human Nav1.6 [5]): 2.3 ×
- Peak INa UDB-10 Hz Hill slope (human Nav1.6 [5]): (0.7)
- ED50 ([3]; male CD-1 mice): 3.8 to 5.4 mg/kg
- ED50 value, protection from MES-induced tonic hindlimb extension ([3]; male CD-1 mice): 4.1 mg/kg
- Peak INa TB Ratio to Pers. INa (human Nav1.6 [2]): 24
- Peak INa VDB Hill slope (hNav1.6): (0.9)
- Peak INa VDB Ratio to Pers. INa (hNav1.6): 0.9
